Measured values reported in patent US6284799A, “Cancer treatment” (priority 1996, dated 2001).
Like-named read-outs stand apart in the source and are kept apart here. Each block holds one molecule with its values, some of them ahead of it.

Assays:
C-3 fibrosarcoma cells = test: tumor promotion in mice injected with C-3 fibrosarcoma cells; type: in vivo, C3H mice; conditions: for animals with tumors by day 5: n=10 per group, no controls had tumors; for tumor growth: C-3 fibrosarcoma, FIG. 7, FIG. 9
Description: The experiments were blinded so that the individual measuring the first appearance of palpable tumor was unaware of the treatment group (saline control vs antidepressant drug; n=10 in each group),

[1] = tested on: concanavalin A-stimulated normal lymphocytes; test: proliferation of concanavalin A-stimulated normal lymphocytes; type: cell-based
HIC [2] = test: inhibition of histamine binding to HIC in microsomes; parameters: species or system rat
[3] = target: ^3 H-DPPE binding (HIC) in rat liver microsomes; test: competition for 3H-DPPE binding in liver microsomes
[4] = tested on: PMA-induced inflammation in skin; test: PMA-induced skin inflammation in DBA/2 mice; type: in vivo
Description: To investigate any effect of DPPE to increase PMA-induced inflammation in the same strain of mice (DBA/2), groups of 3 animals were shaved over the back and 48 hours later received a single topical application of […] PMA in acetone. The PMA-treated mice then received either saline (control) or DPPE (4 or 32 mg/kg at time 0 and 24 hours). Three animals painted with acetone served as vehicle controls. Forty-eight hours later, the various groups were sacrificed by CO2 asphyxiation, the skin carefully excised, pinned to paper strips to prevent, wrinkling, and immersed in formaldehyde. H and E-stained sections of skin were assessed for degree of inflammation.
Indeed, since tumor promotion requires the presence of inflammatory response, and can be blocked by agents which inhibit inflammation by definition, DPPE functions as a co-promoter with PMA.

[5] = tested on: MCF-7 human breast cancer cells; conditions: MCF7, 168 h, read-out: IC50 value, inhibit/kill growth of MCF-7 cells
rat uterus = conditions: cited from earlier work
[6] = tested on: phorbol myristate acetate (PMA)-induced platelet aggregation; test: PMA-induced platelet aggregation; type: cell-based; conditions: for IC50: Platelet, read-out: IC50, antagonism of PMA-induced platelet aggregation
L5178Y lymphoma cells = test: tumor-promoting effect in DBA/2 mice inoculated subcutaneously with L5178Y lymphoma cells; type: in vivo
Description: A second group of 7 tumor cell-inoculated mice served as controls (saline injections, once daily×1). By day 14, 7/7 DPPE treated animals had palpable tumors as compared to 4/7 controls. At the end of 4 weeks, 6/7 controls had tumors with an aggregate surface area of 14.5 cm^2 (mean=2.1±0.8 cm^2 /animal), while 7/7 DPPE-treated animals had tumors with an aggregate surface area of 38.4 cm^2 (mean=5.5±0.7 cm^2 /animal). Thus, the tumor burden of DPPE-treatedanimals was approximately 2.5-fold greater than that of controls.

HIC [7] = test: competition for 3H-histamine binding to HIC in brain membranes; parameters: species or system rat; conditions: for Ki: rat cortical membranes
[8] = clinically relevant doses to enhance chemotherapy, about 0.2-12 mg/kg; cited from earlier work
[9] = 1 mg/kg s.c. once daily x3, end of 4 weeks

Compound: CNCCC(Oc1ccc(C(F)(F)F)cc1)c1ccccc1 (stereo not shown) [fluoxetine]
animals with tumors by day 5 (C-3 fibrosarcoma cells): 4/10

Compound: CC(C)NC[C@H](O)COc1cccc2ccccc12 (racemic) [propanolol]
tumor weight on Day 23 (C-3 fibrosarcoma cells; C-3 fibrosarcoma murine model, FIG. 7): significantly increased tumor weight
inhibition of lymphocyte proliferation / mitogenesis [1]: inhibits normal lymphocyte mitogenesis

Compound: CCOC(=O)N1CCC(=C2c3ccc(Cl)cc3CCc3cccnc32)CC1 [loratidine]
tumor growth (C-3 fibrosarcoma cells): potently promoted tumor growth
inhibition of lymphocyte proliferation / mitogenesis [1]: inhibited concanavalin A-stimulated mitogenesis

inhibition of histamine binding to HIC (HIC [2]): potent to inhibit histamine binding
Compound: COc1ccc(CCN2CCC(Nc3nc4ccccc4n3Cc3ccc(F)cc3)CC2)cc1 [Astemizole]
tumor growth (C-3 fibrosarcoma cells): potently stimulate the growth
inhibition of lymphocyte proliferation / mitogenesis [1]: potent to inhibit

Ki ([3]; liver microsomes, FIG. 2, read-out: K1 to compete for ^3 H-DPPE binding): 10 µM
Compound: CN(C)CCC=C1c2ccccc2CCc2ccccc21 [amitriptyline]
animals with tumors by day 5 (C-3 fibrosarcoma cells): 4/10
IC50 ([1]; Lymphocyte, in the absence of cytotoxicity, FIG. 5, read-out: IC50, inhibition of proliferation): 10 to 20 µM

Compound: CCN(CC)CCOc1ccc(Cc2ccccc2)cc1 [DPPE, N,N-diethyl-2-[4-(phenylmethyl)-phenoxy] ethanamine]
inflammatory response to PMA, high dose ([4]; 32 mg/kg (128 mg/M^2)): most intense inflammatory response
mitotic activity in the epithelial layer ([4]; 32 mg/kg, versus PMA and saline-treated groups): increased mitotic activity
inflammatory response to PMA ([4]; 4 or 32 mg/kg at time 0 and 24 hours, skin assessed at 48 hours, versus saline or acetone controls): significantly greater inflammatory response
IC50 [5]: 6.5 µM
antiestrogenic activity in vivo (rat uterus): antiestrogenic in vivo
effect on tamoxifen action in the rat uterus in vivo (rat uterus): augment the effects of tamoxifen
IC50 [6]: 80 µM
animals with palpable tumors by day 14 (L5178Y lymphoma cells; 1 mg/kg (4 mg/M^2) s.c. once daily x3, day 14, n=7): 7/7
animals with tumors at the end of 4 weeks (L5178Y lymphoma cells; 1 mg/kg s.c. once daily x3, 4 weeks, n=7): 7/7
aggregate tumor surface area (L5178Y lymphoma cells; [9]): 38.4 cm^2
mean tumor surface area per animal (L5178Y lymphoma cells; [9]): 5.5±0.7 cm^2 /animal
tumor burden relative to controls (L5178Y lymphoma cells; end of 4 weeks, versus saline controls): approximately 2.5 fold
Ki (HIC [7]): 0.9 µM
Kd ([3]; ^3 H-DPPE binding in liver microsomes): 0.065 µM
serious toxic effects in humans [8]: does not cause serious toxic effects
inhibition of lymphocyte proliferation / mitogenesis [1]: inhibit

IC50 [6]: 20 µM
potency relative to DPPE in inhibiting histamine binding at HIC (HIC [7]; brain membranes): approximately three times more potent
potency relative to DPPE in HIC binding competition assays (HIC [7]; inhibiting normal cell proliferation and promoting malignant cell proliferation): two to four times that of DPPE
Ki (HIC [7]): 0.3 µM
Ki ([3]; rat liver microsomes, read-out: KI value, competition for [^3 H] DPPE binding): ~0.07 µM
Compound: CCN(CC)CCOc1ccc(C(=O)c2ccc(F)cc2)cc1 [DFPE, N,N=diethyl-2-[4-(4'-fluorophenone)phenoxy] ethanamine]
IC50 [5]: 3 µM
potency relative to DPPE in antagonizing PMA-induced platelet aggregation [6]: approximately four times more potent
